Values belong to the molecule of their own block, whether it stands above or below them.
Test system: 958667-338-R-J2-PDC tumor spheroids viability
Assay: Anticancer human tumor 958667-338-R-J2-PDC patient-derived colon adenocarcinoma cell line growth inhibition [PI3K]
Conditions: spheroids with HUVEC and MSC; for viability, T/C: stronger effect = lower value
In short: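 Tumor cells grown as multi-cell spheroids with HUVEC endothelial cells and MSC fibroblast-like stroma were treated with targeted agents combined with inavolisib, alpelisib, duvelisib or copanlisib. Doses fell in half-log steps from near clinical Cmax, else from 10 microM. Viability was measured.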

[1] = curve of first compound, second compound 0.0316 µM
[2] = curve of first compound, second compound 0.1 µM
[3] = curve of first compound, second compound 0.316 µM
[4] = curve of first compound, second compound 1 µM
[5] = curve of first compound, second compound 3.16 µM
[6] = curve of first compound, second compound 10 µM
[7] = second compound 0.0316 µM, first compound 0.0316 µM
[8] = second compound 0.0316 µM, first compound 0.1 µM
[9] = second compound 0.1 µM, first compound 0.0316 µM
[10] = second compound 0.1 µM, first compound 0.1 µM
[11] = second compound 0.316 µM, first compound 0.0316 µM
[12] = second compound 0.316 µM, first compound 0.1 µM
[13] = second compound 1 µM, first compound 0.0316 µM
[14] = second compound 1 µM, first compound 0.1 µM
[15] = second compound 3.16 µM, first compound 0.0316 µM
[16] = second compound 3.16 µM, first compound 0.1 µM
[17] = second compound 10 µM, first compound 0.0316 µM
[18] = second compound 10 µM, first compound 0.1 µM
[19] = second compound 0.0316 µM, first compound 0.316 µM
[20] = second compound 0.0316 µM, first compound 1 µM
[21] = second compound 0.0316 µM, first compound 3.16 µM
[22] = second compound 0.0316 µM, first compound 10 µM
[23] = second compound 0.1 µM, first compound 0.316 µM
[24] = second compound 0.1 µM, first compound 1 µM
[25] = second compound 0.1 µM, first compound 3.16 µM
[26] = second compound 0.1 µM, first compound 10 µM
[27] = second compound 0.316 µM, first compound 0.316 µM
[28] = second compound 0.316 µM, first compound 1 µM
[29] = second compound 0.316 µM, first compound 3.16 µM
[30] = second compound 0.316 µM, first compound 10 µM
[31] = second compound 1 µM, first compound 0.316 µM
[32] = second compound 1 µM, first compound 1 µM
[33] = second compound 1 µM, first compound 3.16 µM
[34] = second compound 1 µM, first compound 10 µM
[35] = second compound 3.16 µM, first compound 0.316 µM
[36] = second compound 3.16 µM, first compound 1 µM
[37] = second compound 3.16 µM, first compound 3.16 µM
[38] = second compound 3.16 µM, first compound 10 µM
[39] = second compound 10 µM, first compound 0.316 µM
[40] = second compound 10 µM, first compound 1 µM
[41] = second compound 10 µM, first compound 3.16 µM
[42] = second compound 10 µM, first compound 10 µM
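Also: spheroids exposed to compounds for seven days before readout.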

SMILES: CNC(=O)c1ccc(N2C(=S)N(c3ccc(C#N)c(C(F)(F)F)c3)C(=O)C2(C)C)cc1F + Cc1nc(NC(=O)N2CCCC2C(N)=O)sc1-c1ccnc(C(C)(C)C(F)(F)F)c1
- IC50 [1]: > 10 µM
- IC50 [2]: > 10 µM
- IC50 [3]: > 10 µM
- IC50 [4]: > 10 µM
- IC50 [5]: > 10 µM
- IC50 [6]: > 10 µM
- viability, T/C [7]: 109%
- viability, T/C [8]: 94.6%
- viability, T/C [19]: 93.8%
- viability, T/C [20]: 131%
- viability, T/C [21]: 101%
- viability, T/C [22]: 90.5%
- viability, T/C [9]: 105%
- viability, T/C [10]: 112%
- viability, T/C [23]: 103%
- viability, T/C [24]: 91.9%
- viability, T/C [25]: 134%
- viability, T/C [26]: 93.2%
- viability, T/C [11]: 78.9%
- viability, T/C [12]: 102%
- viability, T/C [27]: 93.2%
- viability, T/C [28]: 76.4%
- viability, T/C [29]: 98%
- viability, T/C [30]: 93.6%
- viability, T/C [13]: 74.5%
- viability, T/C [14]: 71.2%
- viability, T/C [31]: 88%
- viability, T/C [32]: 70.8%
- viability, T/C [33]: 97.7%
- viability, T/C [34]: 82.4%
- viability, T/C [15]: 76.9%
- viability, T/C [16]: 69%
- viability, T/C [35]: 64.3%
- viability, T/C [36]: 78.5%
- viability, T/C [37]: 72.3%
- viability, T/C [38]: 65.2%
- viability, T/C [17]: 65.2%
- viability, T/C [18]: 67.3%
- viability, T/C [39]: 58.6%
- viability, T/C [40]: 62.1%
- viability, T/C [41]: 60.9%
- viability, T/C [42]: 46.9%

SMILES: CC(Cn1ccc(-c2ccc(C#N)c(Cl)c2)n1)NC(=O)c1cc(C(C)O)[nH]n1 (stereo not drawn) + CC(Nc1ncnc2nc[nH]c12)c1cc2cccc(Cl)c2c(=O)n1-c1ccccc1
- IC50 [1]: > 10 µM
- IC50 [2]: > 10 µM
- IC50 [3]: > 10 µM
- IC50 [4]: > 10 µM
- IC50 [5]: > 10 µM
- IC50 [6]: > 10 µM
- viability, T/C [7]: 85.4%
- viability, T/C [8]: 105%
- viability, T/C [19]: 85.5%
- viability, T/C [20]: 106%
- viability, T/C [21]: 114%
- viability, T/C [22]: 86.5%
- viability, T/C [9]: 100%
- viability, T/C [10]: 97.5%
- viability, T/C [23]: 99.9%
- viability, T/C [24]: 99.2%
- viability, T/C [25]: 99.4%
- viability, T/C [26]: 79.1%
- viability, T/C [11]: 90.7%
- viability, T/C [12]: 109%
- viability, T/C [27]: 121%
- viability, T/C [28]: 108%
- viability, T/C [29]: 85.8%
- viability, T/C [30]: 109%
- viability, T/C [13]: 119%
- viability, T/C [14]: 115%
- viability, T/C [31]: 99.8%
- viability, T/C [32]: 112%
- viability, T/C [33]: 101%
- viability, T/C [34]: 73.7%
- viability, T/C [15]: 107%
- viability, T/C [16]: 105%
- viability, T/C [35]: 121%
- viability, T/C [36]: 82.8%
- viability, T/C [37]: 101%
- viability, T/C [38]: 98.5%
- viability, T/C [17]: 77.2%
- viability, T/C [18]: 98.7%
- viability, T/C [39]: 86.7%
- viability, T/C [40]: 84.1%
- viability, T/C [41]: 91.9%
- viability, T/C [42]: 97.7%

SMILES: Cn1ncc(Cl)c1-c1cc(C(=O)NC(CN)Cc2cccc(F)c2)sc1Cl (stereo not drawn)
- viability, T/C (compound 0.0316 µM): 94.3% [middle of 4 runs]
- viability, T/C (compound 0.1 µM): 92.4% [middle of 4 runs]
- viability, T/C (compound 0.316 µM): 91.9% [middle of 4 runs]
- viability, T/C (compound 1 µM): 74.7% [middle of 4 runs]
- viability, T/C (compound 3.16 µM): 53.8% [middle of 4 runs]
- viability, T/C (compound 10 µM): 39.3% [middle of 4 runs]

Second part, led by results:

- IC50 [1]: > 0.1 µM
- IC50 [2]: > 0.1 µM
- IC50 [3]: > 0.1 µM
- IC50 [4]: > 0.1 µM
- IC50 [5]: > 0.1 µM
- IC50 [6]: > 0.1 µM
SMILES: Cn1ncnc1[C@H]1c2n[nH]c(=O)c3cc(F)cc(c23)N[C@@H]1c1ccc(F)cc1 + CC(Nc1ncnc2nc[nH]c12)c1cc2cccc(Cl)c2c(=O)n1-c1ccccc1
- viability, T/C (second compound 0.0316 µM, first compound 0.000316 µM): 103%
- viability, T/C (second compound 0.0316 µM, first compound 0.001 µM): 114%
- viability, T/C (second compound 0.0316 µM, first compound 0.00316 µM): 105%
- viability, T/C (second compound 0.0316 µM, first compound 0.01 µM): 110%
- viability, T/C [7]: 113%
- viability, T/C [8]: 98%
- viability, T/C (second compound 0.1 µM, first compound 0.000316 µM): 103%
- viability, T/C (second compound 0.1 µM, first compound 0.001 µM): 82.8%
- viability, T/C (second compound 0.1 µM, first compound 0.00316 µM): 117%
- viability, T/C (second compound 0.1 µM, first compound 0.01 µM): 126%
- viability, T/C [9]: 119%
- viability, T/C [10]: 83.6%
- viability, T/C (second compound 0.316 µM, first compound 0.000316 µM): 120%
- viability, T/C (second compound 0.316 µM, first compound 0.001 µM): 114%
- viability, T/C (second compound 0.316 µM, first compound 0.00316 µM): 111%
- viability, T/C (second compound 0.316 µM, first compound 0.01 µM): 116%
- viability, T/C [11]: 118%
- viability, T/C [12]: 94.7%
- viability, T/C (second compound 1 µM, first compound 0.000316 µM): 109%
- viability, T/C (second compound 1 µM, first compound 0.001 µM): 112%
- viability, T/C (second compound 1 µM, first compound 0.00316 µM): 99.9%
- viability, T/C (second compound 1 µM, first compound 0.01 µM): 100%
- viability, T/C [13]: 95.2%
- viability, T/C [14]: 96.3%
- viability, T/C (second compound 3.16 µM, first compound 0.000316 µM): 107%
- viability, T/C (second compound 3.16 µM, first compound 0.001 µM): 109%
- viability, T/C (second compound 3.16 µM, first compound 0.00316 µM): 99.2%
- viability, T/C (second compound 3.16 µM, first compound 0.01 µM): 89.9%
- viability, T/C [15]: 94.7%
- viability, T/C [16]: 89.8%
- viability, T/C (second compound 10 µM, first compound 0.000316 µM): 93.7%
- viability, T/C (second compound 10 µM, first compound 0.001 µM): 98.3%
- viability, T/C (second compound 10 µM, first compound 0.00316 µM): 109%
- viability, T/C (second compound 10 µM, first compound 0.01 µM): 89.9%
- viability, T/C [17]: 83.2%
- viability, T/C [18]: 88.4%

- IC50 (compound alone, run of 06/13/2023): 147 nM [middle of 8 runs]
SMILES: COc1c(OCCCN2CCOCC2)ccc2c3n(c(=NC(=O)c4cnc(N)nc4)nc12)CCN3
- viability, T/C (compound 0.00316 µM): 92.6% [middle of 8 runs]
- viability, T/C (compound 0.0316 µM): 71.9% [middle of 8 runs]
- viability, T/C (compound 0.1 µM): 54% [middle of 8 runs]
- viability, T/C (compound 0.316 µM): 38.8% [middle of 8 runs]
- viability, T/C (compound 1 µM): 18.2% [middle of 8 runs]
